Publication PMC6095626, “Screening of the Pathogen Box for inhibitors with dual efficacy against Giardia lamblia and Cryptosporidium parvum” (PLoS Neglected Tropical Diseases, 2018)

Columns and labels:
[1] = tested on: G. lamblia trophozoites (luciferase expressing, WBC6); assay: microbe, parasite or virus in culture; assay type: cell-based, Giardia lamblia; details: for Giardia (16 uM) Mean % inhibition: initial Pathogen Box screen, single concentration 16 µM, inhibition compared to DMSO wells; for G. lamblia inhibition of parasite growth in the initial screen: 16 μM
Procedure, shortened: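 Incubation ran 24 h at 37 °C under anaerobic conditions, with compound added in equal volume to trophozoites (WBC6, luciferase-expressing, 250,000 cells/mL). Bioluminescence was the read-out, cross-checked by MOXI Z counts on a duplicate plate; metronidazole served as control (1:2 dilutions from 40 μM).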

[2] = tested on: C. parvum (UGA1 Nluc expressing strain in HCT-8 cells); assay: microbe, parasite or virus in culture; assay type: cell-based, Cryptosporidium parvum; details: for Crypto (10 uM) Mean % inhibition: initial Pathogen Box screen, single concentration 10 µM, inhibition compared to DMSO wells
Procedure, shortened: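 Parasite growth quantified by NanoLuc luminescence from lysed infected HCT-8 cells, with EC50 fitted from dose curves. Compounds, single-dose 10 μM or serially diluted, were added to confluent 48 h monolayers before infection with bleached UGA1 Nluc oocysts.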

Row | SMILES | Giardia (16 uM) Mean % inhibition [1] | Crypto (10 uM) Mean % inhibition [2] | further results
1 | O=C(C1CCN(c2cc(-n3cccc3)ncn2)CC1)N1CCc2ccccc2C1 [MMV687172] | X* (Mean or standard deviation are negative but not significantly different from the control to be a growth promoter) | 48% | 
2 | O[C@@H](c1cc(C(F)(F)F)nc2c(C(F)(F)F)cccc12)[C@H]1CCCCN1 [MMV000016] | 16% | 77% | 
3 | O=C(Nc1nc(-c2ccccn2)cs1)C1CC1c1ccccc1F (centres unmarked) [MMV1028806] | X* (Mean or standard deviation are negative but not significantly different from the control to be a growth promoter) | 91% | 
4 | CNc1snc(C)c1C(=O)NCCOc1ccc(OC)cc1 [MMV688554] | X* (Mean or standard deviation are negative but not significantly different from the control to be a growth promoter) | X* (Mean or standard deviation are negative but not significantly different from the control to be a growth promoter) | 
5 | CCOC(=O)c1c(NC(=O)c2c(F)c(F)c(F)c(F)c2F)sc(C(N)=O)c1C [MMV153413] | 97% | X* (Mean or standard deviation are negative but not significantly different from the control to be a growth promoter) | G. lamblia inhibition of parasite growth in the initial screen ([1]; 24 hours): ≥ 95%; G. lamblia EC50 ([1]; luciferase expressing G. lamblia trophozoites, 24 hours, D-luciferin bioluminescence read-out): not potent
6 | CC(C)c1ncc(-c2ccncc2)c(C2CCC(CNC(=O)c3cccnc3)CC2)n1 (centres unmarked) [MMV676442] | 12% | 74% | 
7 | O=C(Nc1cccc(Cl)c1)c1cnc(N2CCN(c3ccncc3)CC2)c(Cl)c1 [MMV024406] | 91% | 91% | C. parvum EC50 ([2]; Nluc C. parvum in HCT-8 cells, 48 hours): not potent
8 | CN1CCCN(C(c2ccccc2)c2ccc(Cl)cc2)CC1 (centres unmarked) [MMV004168] | 27% | 56% | 
9 | Cc1cccc(-c2nc(Nc3ccncn3)c3sccc3n2)n1 [MMV688122] | 33% | 93% | 
10 | CC(C)(CN)c1nc(-c2ccc(Cl)c(O)c2)c(-c2ccnc(N)n2)[nH]1 [MMV030734] | 35% | X* (Mean or standard deviation are negative but not significantly different from the control to be a growth promoter) | 
11 | Cc1ccc(-c2cc(C(=O)Nc3cccnc3)c3cc(Br)ccc3n2)cc1 [MMV016838] | 63% | 42% | 
12 | O=C(Nc1ccccc1-c1nc2c(C(=O)O)cccc2o1)c1ccccc1 [MMV676162] | 1.55% | 48% | 
13 | Cc1cc(OCC(=O)Nc2ccc(C(C)C)cc2)n(C)c(=O)c1C#N [MMV1198433] | 10% | 52% | 
14 | Cc1cnc(N2CCN[C@@H](Cc3ccccc3)C2)nc1Oc1ccc(-n2ccnc2)cc1 [MMV687765] | 49% | 39% | 
15 | COc1cccn2c(C(=O)N3CCCCC3)c(C(F)(F)F)nc12 [MMV1110498] | 61% | 60% | 
16 | COc1ccc(C(=N)N)cc1-c1cn(-c2ccc(C(=N)N)cc2)nn1 [MMV675998] | 30% | X* (Mean or standard deviation are negative but not significantly different from the control to be a growth promoter) | 
17 | Cc1ccc2nc(Cl)c(CNCc3cccs3)cc2c1 [MMV676439] | 70% | 81% | 
18 | O=C(c1ccco1)N(CCCn1ccnc1)c1nc2c(Cl)cccc2s1 [MMV688936] | 31% | 6.36% | 
19 | Cn1c(=O)c2c(S(C)(=O)=O)snc2n(C)c1=O [MMV687251] | 7.44% | 76% | 
20 | Cc1ccc(-c2nc(CN(Cc3ccccn3)C(C)C)cs2)o1 [MMV1088520] | 52% | 27% | 
21 | COC(=O)c1cccc2oc(-c3cccc(OC)c3NC(=O)c3cc(-c4ccccc4)on3)nc12 [MMV676186] | 19% | 28% | 
22 | c1csc(-c2cnc3sc(NCC4CCOCC4)nn23)c1 [MMV010764] | X* (Mean or standard deviation are negative but not significantly different from the control to be a growth promoter) | X* (Mean or standard deviation are negative but not significantly different from the control to be a growth promoter) | 
23 | CC1CCCCN1C(=O)NCCc1coc(-c2ccc(F)cc2)n1 (centres unmarked) [MMV688797] | 23% | X* (Mean or standard deviation are negative but not significantly different from the control to be a growth promoter) | 
24 | c1ccc(C[C@@H]2CN(c3nccc(Oc4ccc(-n5ccnc5)cc4)n3)CCN2)cc1 [MMV687749] | 24% | 58% | 

Row | SMILES | Giardia (16 uM) Mean % inhibition [1] | Crypto (10 uM) Mean % inhibition [2] | further results
25 | CCc1ccccc1-n1c(C)cn2c3c(=O)n(C(C(=O)OC)C(C)C)c(=O)n(C)c3nc12 (centres unmarked) [MMV688550] | X* (Mean or standard deviation are negative but not significantly different from the control to be a growth promoter) | 58% | 
26 | O=C(Nc1n[nH]c(=S)s1)c1cc(Br)ccc1Cl [MMV676492] | X* (Mean or standard deviation are negative but not significantly different from the control to be a growth promoter) | 57% | 
27 | COC(=O)c1ccc(F)cc1NS(=O)(=O)c1cccc(-c2cnn(Cc3ccccc3)c2)c1 [MMV688350] | -6% | 53% | 
28 | CCc1ccc(C(NCc2nc(N)nc(N(C)C)n2)C(C)C)cc1 (centres unmarked) [MMV1019989] | 4.4% | X* (Mean or standard deviation are negative but not significantly different from the control to be a growth promoter) | 
29 | Cc1ccc(NC(=O)c2nc[nH]c2C(=O)Nc2nc3ccccc3[nH]2)c(C)c1 [MMV011903] | 21% | 62% | 
30 | Cc1cc(NC(=O)c2ccc(Oc3ccc(Cl)cc3O)o2)no1 [MMV688955] | 26% | 50% | 
31 | O=S(=O)(c1ccc(Cl)cc1)N1CCN(C(=S)NCc2ccco2)CC1 [MMV000858] | 3% | 41% | 
32 | COc1cc(NC(=O)Cc2nn(C)c(=O)c3ccccc23)ccc1Cl [MMV676053] | X* (Mean or standard deviation are negative but not significantly different from the control to be a growth promoter) | 84% | 
33 | C[C@H](c1ccc2c(c1)CCCC2)N(C)c1ncc2c(N)nc(N)nc2n1 [MMV690103] | 49% | 78% | 
34 | Clc1cccc(CO[C@H]2CCc3ccccc3[C@@H]2n2ccnn2)c1 [MMV676159] | 30% | X* (Mean or standard deviation are negative but not significantly different from the control to be a growth promoter) | 
35 | COc1cc(CN2CCC3(C=Cc4ccccc43)CC2)cc2c1OCO2 [MMV688941] | 62% | 56% | 
36 | FC(F)(F)c1cc(NCCc2ccccc2)nc(-c2ccccn2)n1 [MMV659010] | 41% | 15% | 
37 | CN1CCN(S(=O)(=O)c2ccc(-c3ccc4c(Nc5ccc6n[nH]nc6c5)ccnc4c3)cc2)CC1 [MMV687246] | 30% | X* (Mean or standard deviation are negative but not significantly different from the control to be a growth promoter) | 
38 | Clc1cccc(C(c2ccc(CN3CCNCC3)cc2)n2ccnc2)c1 (centres unmarked) [MMV663250] | 14% | 52% | 
39 | COC(=O)Nc1nc2ccc(C(=O)c3ccccc3)cc2[nH]1 [MMV003152, mebendazole, reference compound] |  |  | G. lamblia inhibition of parasite growth in the initial screen ([1]; 24 hours): did not show up in the screen; inhibition at 16 µM ([1]; Giardia duodenalis, read-out: Giardia (16 uM) Mean % inhibition): 26%; inhibition at 10 µM ([2]; Cryptosporidium parvum, HCT-8, read-out: Crypto (10 uM) Mean % inhibition): 91%
40 | Cc1cc2nc(NC(=O)C(C)(C)C)nc(Cl)c2n1Cc1ccc(Cl)cc1 [MMV688704] | 42% | 76% | 
41 | COc1ccc(-c2cnc3cnc(-c4cccc(OC(C)C)c4)cn23)cc1 [MMV688270] | 10% | X* (Mean or standard deviation are negative but not significantly different from the control to be a growth promoter) | 
42 | CC(C)n1nc(-c2cc3c(Cl)cccc3[nH]2)c2c(N)ncnc21 [MMV688417] | 77% | 85% | 
43 | COc1ccc(Oc2ccc([C@@H](C)N(C)c3ncc4c(N)nc(N)nc4n3)cc2)cc1 [MMV690102] | 62% | 77% | 
44 | NCC(c1cccs1)S(=O)(=O)c1ccccc1 (centres unmarked) [MMV688557] | -0.156% | 81% | 
45 | COc1ccc(-c2nc(-c3cccc(NC(=O)Cc4ccc(F)cc4)c3)no2)cc1OC [MMV676571] | 6% | 84% | 
46 | Cc1ccc2oc(-c3cc(NC(=O)Cc4ccccc4)ccc3Cl)nc2c1 [MMV676509] | 27% | 56% | 
47 | NCCN(C(=O)c1ccc(Cl)cc1Cl)c1ccc(OCc2ccc(Cl)cc2)cc1 [MMV688371] | 72% | 76% | 
